The values below come from doi:10.1101/2023.04.22.537907v1 (biorxiv, 2023).

For this assay, the target named is PcVHA-a (vacuolar H+-ATPase subunit a; Pc106526). As to the kind of experiment: microscale thermophoresis with lysate of mCherry-fusion transformants. The class given is binding, Phytophthora capsici. The following applies: 25 °C; 20% MST power; total protein lysate; mCherry-only control.

The Kd is the concentration at which binding is half-saturated. A higher Kd goes with weaker binding.

Regarding `O=C(NCc1ncc(C(F)(F)F)cc1Cl)c1c(Cl)cccc1Cl` [fluopicolide], binding was characterised by a dissociation constant (Kd) of 17.9 µM.
